Here are results for 33 compounds from US5380724A, “Piperazine and homopiperazine derivatives, pharmaceutical compositions containing them and process for preparing same” (Gyogyszerkutato Intezet KFT, priority 1992, dated 1995).

The test system of one test is acute brain injury. Briefly: inhibition of acute brain injury of mice (improvement in the neurological state). Type of test: in vivo. The following applies: intravenous. The text has this: 1. […] 68, 456 (1988)]. The doses of the test compounds administered by the intravenous route and the percentage of improvement in the neurological state are summarized in Table 4.

Test [1] relates to rat brain homogenate (ferrous ion dependent lipid peroxidation). Briefly: ferrous ion dependent lipid peroxidation inhibitory activity on rat brain homogenate (thiobarbituric acid reactive substances). The note with it: Fe2+ dependent lipid peroxidation, TBARS. It is filed as biochemical. Here is the method:
1. The ferrous ion dependent lipid peroxidation inhibitory activity was measured on rat brain homogenate by using the method descibed by J. M. Braughler et al., [J. Biol. Chem. 262, 10438 (1987)] and J. A. Buege and S. D. […] The IC50 value is defined as the concentration of a test substance which reduces by 50% the amount of the thiobarbituric acid reactive substances (chiefly malondialdehyde) considered to be a characteristic parameter of lipid peroxidation.

Test [2] deals with NADPH dependent lipid peroxidation. Briefly: inhibition of the NADPH dependent lipid peroxidation. It is filed as biochemical. Here is the method: 3. Inhibiton of the NADPH dependent lipid peroxidation was measured according to T. J. Player and A. A. Horton [J. Neurochem. 37, 422 (1981)] and Z. Duniec [Biochem. Pharmacol. 32, 2283 (1983)]. The IC50 values (expressed in micromols) of some compounds of the invention, further those of the reference compounds determined in this test are given in Table 3.

Test [3] deals with arachidonic acid (ferrous ion dependent peroxidation). Briefly: inhibition of the ferrous ion dependent peroxidation of arachidonic acid. The following applies: Fe2+ dependent peroxidation of arachidonic acid. It is filed as biochemical. Here is the method:
2. The inhibition of the ferrous ion dependent peroxidation of arachidonic acid was also measured by the method of J. M. Braughler et al. [J. Biol. Chem. 262, 10438 (1987)] and J. A. Buege and S. D. Aust [Methods in Enzymology 52, 302 (1978)]. The IC50 values (expressed in micromols) of some compounds of the invention, further those of the reference compounds determined in this test are shown in Table 2.

For test [4], the system named is ischemia induced weight increase of the small intestine. Description: inhibition of ischemia induced weight increase of a definite section in the small intestine of rats. It is filed as in vivo. The following applies: Rattus norvegicus, 25 mg/kg oral. Here is the method:
2. […] The percentage of inhibition observed after administration of a 25 mg/kg oral dose of the compounds of the invention or of the reference compounds is shown in Table 5.

The structures appear in SMILES notation. Some results are limits rather than exact numbers.

Usually IC50 stands for the midpoint of a concentration-inhibition curve. `Cc1c(C)c2c(c(C)c1O)CCC(C)(CCCC(C)CCCC(C)CCCC(C)C)O2` (stereo not drawn) [α-tocopherol, reference compound]: the “Improvement (in the neurological state)” value in the test on acute brain injury (30 mg/kg) came to 97%. The results for the IC50 in test [1], in test [2] and in test [3] were 7 µM, greater than 100 µM and 2 µM, respectively.
The inhibition in vivo is the relative decrease from the control value, in per cent. In the case of `Nc1cc(N2CCN(C(c3ccccc3)(c3ccccc3)c3ccccc3Cl)CC2)nc(N)n1` [Example 12], in the test with acute brain injury (10 mg/kg), the “Improvement (in the neurological state)” value came out at 46%. The same compound gave an IC50 in test [1] of 18 µM. In test [4], the inhibition in vivo at 25 mg/kg came to 52%.
On to `CCCCCCCCCCCCCCCCCC(=O)N1CCCN(c2cc(N3CCCC3)nc(N3CCCC3)n2)CC1` [Example 6], for which, in test [4], 25 mg/kg produced 25% inhibition in vivo.
`Nc1nc(N)c2nc(-c3ccc(OCC(O)CN4CCN(C56CC7CC(CC(C7)C5)C6)CC4)cc3)c(N)nc2n1` (stereo not shown) [Example 37, 6-[4-[3-[4-(1-Adamantyl)-1-piperazinyl]-2-hydroxypropoxy]phenyl]-2,4,7-triaminopteridine] showed an IC50 in test [3] of 17 µM. For the same compound, the inhibition in vivo at 25 mg/kg in test [4] worked out at 35%.
In test [4], `Nc1nc(N)c2nc(C(=O)N3CCN(C(c4ccccc4)(c4ccccc4)c4ccccc4Cl)CC3)c(N)nc2n1` [Example 16] returned an inhibition in vivo at 25 mg/kg of 45%.
Regarding `Nc1cc(N2CCN(C(=O)COc3cccc4ccccc34)CC2)nc(N)n1` [Example 31, 1-[2-(1-Naphthyloxy)acetyl]-4-(2,6-diamino-4-pyrimidinyl)piperazine], the inhibition in vivo at 25 mg/kg in test [4] is 79%.
The same measure, in the same setting: with `O=c1[nH]ncc(N2CCN(C34CC5CC(CC(C5)C3)C4)CC2)c1Cl` [Example 18, 1-(1-Adamantyl)-4-(4-chloro-3-oxo-2,3-dihydro-5-pyridazinyl)piperazine] the figure was 31%.
Compound `Nc1cc(N2CCN(CC(O)COc3cccc4ccccc34)CC2)nc(N)n1` (stereo not shown) [Example 20, 1-[2-Hydroxy-3-(1-naphthyloxy)-propyl]-4-(2,6-diamino-4-pyrimidinyl)piperazine] yielded an IC50 in test [1] of 94 µM. The compound also registered an inhibition in vivo at 25 mg/kg in test [4] of 28%.
Compound `C=CCCCCCCCCC(=O)N1CCN(c2cc(N)nc(N)n2)CC1` [Example 3, 1-(10-Undecenoyl)-4-(2,6-diamino-4-pyrimidinyl)-piperazine] yielded an IC50 in test [1] of 52 µM. Moreover, testing at 25 mg/kg in test [4] gave an inhibition in vivo of 31%.
Consider `Nc1nc(N)c2nc(-c3ccc(SCC(O)CN4CCNCC4)cc3)c(N)nc2n1` (stereo not shown) [Example 54], for which, in test [3], half-maximal inhibition (IC50) required 17 µM. This compound also registered an inhibition in vivo at 25 mg/kg in test [4] of 56%.
As for `O=C(COc1cccc2ccccc12)N1CCCN(c2cc(N3CCCC3)nc(N3CCCC3)n2)CC1` [Example 36], in test [1], inhibition was half-maximal at 30 µM (IC50). The same compound came in with an inhibition in vivo at 25 mg/kg in test [4] of 24%.
Consider `Nc1nc(N2CCNCC2)c2nc(-c3ccccc3)c(N)nc2n1` [Example 59, 1-(2,7-Diamino-6-phenyl-4-pteridinyl)piperazine], for which 25 mg/kg produced 30% inhibition in vivo in test [4].
Take `OC(COc1ccc2ccccc2c1)CN1CCN(c2cc(N3CCCC3)nc(N3CCCC3)n2)CC1` (stereo not shown) [Example 26]: the IC50 in test [1] turned out to be 19 µM; in test [2], 59 µM. In test [4], this compound displayed an inhibition in vivo at 25 mg/kg of 45%.
In turn, `Nc1nc(N)c2nc(-c3ccc(NC(=O)CN4CCNCC4)cc3)c(N)nc2n1` [Example 55] registered an inhibition in vivo at 25 mg/kg in test [4] of 47%.
Regarding `Nc1cc(N2CCN(CC(O)COc3ccc4ccccc4c3)CC2)nc(N)n1` (stereo not shown) [Example 24], in test [4], testing at 25 mg/kg gave an inhibition in vivo of 20%.
In test [1], `OC(COc1cccc2ccccc12)CN1CCN(c2cc(N3CCCC3)nc(N3CCCC3)n2)CC1` (stereo not shown) [Example 22] displayed an IC50 of 13 µM.
In turn, `Nc1nc(N)c2nc(-c3ccc(NCC(O)CN4CCNCC4)cc3)c(N)nc2n1` (stereo not shown) [Example 52] gave an IC50 in test [3] of 12 µM. For the same compound, 25 mg/kg produced 34% inhibition in vivo in test [4].
In test [3], `Nc1nc2nc(N3CCN(C45CC6CC(CC(C6)C4)C5)CC3)nc(N)c2nc1-c1ccccc1` [Example 57, 1-(1-Adamantyl)-4-(4,7-diamino-6-phenyl-2-pteridinyl)piperazine] returned an IC50 of 49 µM.
For the compound `O=C1CCCc2cc(OCC(O)CN3CCCN(c4cc(N5CCCC5)nc(N5CCCC5)n4)CC3)ccc21` (stereo not shown) [Example 30], the IC50 is 12 µM in test [1] and 16 µM in test [2]. In test [4], this compound had an inhibition in vivo at 25 mg/kg of 42%.
`Nc1nc2nc(N3CCNCC3)nc(N)c2nc1-c1ccccc1` [Example 58, 1-(4,7-Diamino-6-phenyl-2-pteridinyl)piperazine] had an IC50 in test [3] of 38 µM.
Consider `c1ccc(C(c2ccccc2)(c2ccccc2)N2CCCN(c3cc(N4CCCC4)nc(N4CCCC4)n3)CC2)cc1` [Example 11], for which, in test [4], the inhibition in vivo at 25 mg/kg worked out at 57%.
`Nc1cc(N2CCCN(CC(O)COc3ccc4ccccc4c3)CC2)nc(N)n1` (stereo not shown) [Example 25] yielded an inhibition in vivo at 25 mg/kg in test [4] of 35%.
As for `CCCCCCCCCCCCCCCCCC(=O)N1CCN(c2cc(N)nc(N)n2)CC1` [Example 7], in test [4], 25 mg/kg produced 34% inhibition in vivo.
Still for that read-out and setting: with `Nc1nc2nc(N3CCN(C(c4ccccc4)(c4ccccc4)c4ccccc4Cl)CC3)nc(N)c2nc1-c1ccccc1` [Example 15] the figure was 32%.
As to `CN(CC(O)CN1CCNCC1)c1ccc(-c2nc3c(N)nc(N)nc3nc2N)cc1` (stereo not shown) [Example 53], in test [3], the IC50 came to 0.9 µM. In test [4], this compound showed an inhibition in vivo at 25 mg/kg of 56%.
For `Cc1cc(C(C)(C)C)c(O)c(C(C)(C)C)c1` [BHT, 3,5-di(tert-butyl)-4-hydroxytoluene, reference compound], the IC50 was 1 µM in test [1], 2 µM in test [2] and greater than 100 µM in test [3].
Regarding `CCCCCCCCCCCCCCCCCCN1CCN(c2cc(N)nc(N)n2)CC1` [Example 4], in test [4], the inhibition in vivo at 25 mg/kg was determined as 46%.
As to `OC(COc1cccc2ccccc12)CN1CCCN(c2cc(N3CCCC3)nc(N3CCCC3)n2)CC1` (stereo not shown) [Example 23], the IC50 in test [1] came to 9 µM; in test [2] it was 13 µM. In addition, the inhibition in vivo at 25 mg/kg in test [4] is 52%.
`Nc1nc(N)c2nc(-c3ccc(NCCCN4CCNCC4)cc3)c(N)nc2n1` [Example 56, 6-[4-[3-(1-Piperazinyl)propylamino]phenyl]-2,4,7-triamino-pteridine]: the inhibition in vivo at 25 mg/kg in test [4] came to 44%.
For `Nc1nc(N)c2nc(-c3ccc(OCC(O)CN4CCCNCC4)cc3)c(N)nc2n1` (stereo not shown) [Example 51], the IC50 in test [3] is 28 µM.
In turn, `Nc1cc(N2CCN(C(c3ccccc3)(c3ccccc3)c3ccccc3)CC2)nc(N)n1` [Example 9, 1-Trityl-4-(2,6-diamino-4-pyrimidinyl)piperazine] displayed an IC50 in test [1] of 51 µM. The compound further returned an inhibition in vivo at 25 mg/kg in test [4] of 37%.
The compound `O=C(COc1cccc2ccccc12)N1CCN(c2cc(N3CCCC3)nc(N3CCCC3)n2)CC1` [Example 33, 1-[2-(1-Naphthyloxy)acetyl]-4-[2,6-di(1-pyrrolidinyl)-4-pyrimidinyl]piperazine] came in with an IC50 in test [1] of 20 µM. The compound further had an inhibition in vivo at 25 mg/kg in test [4] of 53%.
Turning to `Nc1nc(N)c2nc(-c3ccc(OCC(O)CN4CCN(C(c5ccccc5)(c5ccccc5)c5ccccc5Cl)CC4)cc3)c(N)nc2n1` (stereo not shown) [Example 39], in test [4], 25 mg/kg produced 34% inhibition in vivo.
